Series [1] concerns Ile164 receptor. Conditions: cited from earlier work; for binding affinity: competition with [125I]cyp in the presence of GTP, Ile164 receptor.
The test system of another series is Thr164 receptor. Conditions: COS-7 cells transiently transfected; salmeterol 10 minutes at 37 °C, perfused with saline 30 min; n = 5, p = 0.02.
For another series, the system named is human Ile164 receptor. The following applies: transgenic mice overexpressing human Ile164 receptor in the heart compared to wild-type receptor; cited from earlier work.
The test system of series [2] is Ile164 receptor. Conditions: Ile164 receptor compared to Thr164 receptor; cited from earlier work.

Protocol for Thr164 receptor: The exosite binding studies were carried out by methods as described in reference 4. Briefly, COS-7 cells were transiently transfected with constructs consisting of Thr164 or Ile164 cDNAs in the vector pBC12BI as previously described (4). Cells were grown in 35 mm dishes as monolayers. […] The media was removed, and cells perfused with saline at a rate of 20 ml/min for 30 min. Cells were detached by scraping and cell membranes prepared. […] Reactions were run for 2 hrs at 25 °C. Bound radioligand was separated from unbound by vacuum filtration over Whatman GF/C filters, which were counted in a gamma counter at 70% efficiency. Specific binding was defined as total minus non-specific binding, corrected for protein.

Turning to `NC[C@H](O)c1ccc(O)c(O)c1` [norepinephrine], in the series with Ile164 receptor [1], the binding affinity entry is given as “small decrease in binding affinity”.
In the series on Thr164 receptor, `OCc1cc(C(O)CNCCCCCCOCCCCc2ccccc2)ccc1O` (stereo not shown) [salmeterol] showed a salmeterol exosite binding of 49 ± 4%.
With `CC(C)NCC(O)c1ccc(O)c(O)c1` (stereo not shown) [isoproterenol], the binding affinity entry with Ile164 receptor [1] was “small decrease in binding affinity”. Moreover, the binding curves result in the series with Ile164 receptor [1] (in the absence of GTP, Ile164 compared to Thr164 receptor (Figure 2)) was “different between the two receptors”. Also, the “adenylyl cyclase activity in response to agonist” value in the series on human Ile164 receptor is listed as “lowered activities”.
With `CNC[C@H](O)c1ccc(O)c(O)c1` [epinephrine], the “stimulation of adenylyl cyclase” value in the series on Ile164 receptor [2] is “decreased stimulation”. Besides, the binding affinity result in the series on Ile164 receptor [1] is listed as “small decrease in binding affinity”.

(Values after patent publication EP1169483B1, “VARIATION IN DRUG RESPONSE RELATED TO POLYMORPHISMS IN BETA2- ADRENERGIC RECEPTOR” (UNIVERSITY OF CINCINNATI, priority 1999, dated 2001).)
